In patent US20250360167A1 (Keryx Biopharmaceuticals, Inc., priority 2013, published 2025):

Key:
Type in all cases: in vivo, human
serum phosphorus = experiment: Phase 2 trial in anemic Stage III to V CKD subjects not on dialysis (Example 2): serum phosphorus
Protocol: This trial is a three-period clinical trial consisting of a screening period, a two-week washout period, and a 12-week treatment period.
If a subject has a serum phosphorus ≥6.0 mg/dL for at least two visits in a row during the 12-week treatment period, the subject is considered a treatment failure, stops study drug and exits the study.
The target level for serum phosphorus is 3.0 to 4.0 mg/dL. Subjects are titrated as follows: • 1. If serum phosphorus is at target (3.0 to 4.0 mg/dL), no adjustment in dose is required. • 2.
(§1) Change in serum phosphorus, ferritin and TSAT levels from baseline to end of treatment after 12 weeks are the primary endpoints.
(§2) The co-primary efficacy endpoints of this trial were the mean changes in serum phosphorus and TSAT from baseline to the end of the 12-week treatment period versus placebo in the ITT group.

[1] = Phase 3 trial (Example 1): cumulative EPO (ESA) administered to Week 52
Source text: The cumulative EPO (ESA) administrated from randomization to Week 52 will be compared between treatment groups. This variable will be similarly analyzed as the primary efficacy variable using ANCOVA method. The two-sided 95% confidence intervals of treatment differences for all above comparisons will be presented.

TSAT = experiment: Phase 2 trial (Example 2): TSAT
Source text: as §1, §2

[2] = tested on: Product Of Calcium And Phosphorus; experiment: Phase 3 trial (Example 1): phosphorus times calcium product
Protocol: Serum phosphorus and calcium were performed at Screening (Visit 0); weekly during the Washout Period after Visit 1 (Week −2); at Visit 4 (Randomization Visit); at Visits 5 (Week 1), 6 (Week 2), 7 (Week 4), 8 (Week 6), 9 (Week 8), 10 (Week 10), 11 (Week 12), 12 (Week 16), 13 (Week 20), 14 (Week 24), 15 (Week 28), 16 (Week 32), 17 (Week 36), 18 (Week 40), 19 (Week 44), 20 (Week 48), and 21 (Week 52) of the 52-week Safety Assessment Period; and at Visits 22 (Week 53), 23 (Week 54), 24 (Week 55) and 25 (Week 56) of the Efficacy Assessment Period.
These variables will be analyzed using LOCF methodology. ANCOVA will be employed. The model will include treatment (fixed effect), and Visit-4 baseline (covariate). An analysis using MMRM method will be conducted as a sensitivity analysis. The least square mean estimates of the treatment effects as well as the 2-sided 95% confidence intervals (CI) of the treatment effects will be derived.
• 1. Change in serum calcium concentration at Weeks 12, 24, 36, 48, and 52 as compared to baseline (Visit 4). This variable will be analyzed using LOCF methodology. ANCOVA will be employed. The model will include treatment (fixed effect), and baseline (covariate). • 2. Change in ferritin, and TSAT at Weeks 12, 24, 36 and 48 as compared to baseline (Visit 4). This variable will be analyzed using LOCF methodology. ANCOVA will be employed. The model will include treatment (fixed effect), and baseline (covariate). • 3. Change in serum iron and TIBC at Weeks 12, 24, 36, 48, and 52 as compared to baseline (Visit 4). This variable will be analyzed using LOCF methodology. ANCOVA will be employed. The model will include treatment (fixed effect), and baseline (covariate). • 4. Change in Ca x P product at Weeks 12, 24, 36, 48, and 52 as compared to baseline (Visit 4). This variable will be analyzed using LOCF methodology. ANCOVA will be employed. The model will include treatment (fixed effect), and baseline (covariate). • 5. Change in iPTH at Weeks 12, 36, 52, and 56 as compared to baseline (Visit 4). This variable will be analyzed using LOCF methodology. ANCOVA will be employed. The model will include treatment (fixed effect), and baseline (covariate). • 6. Change in serum […], vitamin A, vitamin B-12, vitamin E, vitamin K and folic acid at Weeks 12, 36, and 52 as compared to baseline (Visit 4). This variable will be analyzed using LOCF methodology. ANCOVA will be employed. The model will include treatment (fixed effect), and baseline (covariate). • 7. Change in serum bicarbonate concentration at Weeks 12, 36, and 52 as compared to baseline (Visit 4). This variable will be analyzed using LOCF methodology. ANCOVA will be employed. The model will include treatment (fixed effect), and baseline (covariate). • 8. Change in IV iron intake at Weeks 12, 24, 36, 48, and 52 as compared to baseline (Visit 4). This variable will be analyzed using LOCF methodology. ANCOVA will be employed. The model will include treatment (fixed effect), and baseline (covariate). • 9. Change in the use of EPO (ESA) administered at Weeks 12, 24, 36, 48, and 52 as compared to baseline (Visit 4). This variable will be analyzed using LOCF methodology. ANCOVA will be employed. The model will include treatment (fixed effect), and baseline (covariate). • 10. Change in the use of Vitamin D supplementation (and its analogs) and Sensipar (cinacalcet) at Weeks 12, 24, 36, 48, and 52 as compared to baseline (Visit 4). This variable will be analyzed using LOCF methodology. ANCOVA will be employed. The model will include treatment (fixed effect), and baseline (covariate). • 11. Change in LDL, HDL, and triglycerides at Weeks 12, 36, and 52 as compared to baseline (Visit 4). This variable will be analyzed using LOCF methodology. ANCOVA will be employed. The model will include treatment (fixed effect), and baseline (covariate).

[3] = Week 12, last observation carried forward, ITT group, n = 72

With “iron (+3), x (1, 2, 3-propanetricarboxylic acid, 2-hydroxy-), y (H2O) [KRX-0502]” the “Mean Serum Phosphorus, Baseline” value (serum phosphorus; Baseline, ITT group, n = 72) was 4.5 mg/dL, the “Mean Serum Phosphorus, End of Treatment (Week 12)” value (serum phosphorus; [3]) was 3.9 mg/dL and the “co-primary (serum phosphorus, TSAT) and key secondary endpoints (ferritin, hemoglobin, FGF-23)” value (serum phosphorus; mean changes baseline to end of 12-week treatment vs placebo, ITT, 141 subjects) was “met both co-primary and all key secondary endpoints with highly statistically significant results”. The “ending serum phosphorus at Visit 11 (Week 12)” value (serum phosphorus; sample size assumption) was “approximately 4.3 mg/dL”, the “Average Daily EPO (ESA) intake based on the Cumulative EPO (ESA) intake to week 52 (Visit 4-21), Median” value ([1]; Safety Assessment Period, Full Analysis Population, Method 1 to handle overlapping doses) was 724.24 and the “Average Daily EPO (ESA) intake based on the Cumulative EPO (ESA) intake to week 52 (Visit 4-21), Mean” value ([1]; Safety Assessment Period, Full Analysis Population, Method 1 to handle overlapping doses, SD in the next cell) was 1077.67. The “decrease in median ESA intake” value ([1]; administered over a period of 52 weeks, stated as embodiment) was 27.1%, the “TSAT, Baseline” value (TSAT; Baseline, ITT group, n = 72) was 22% and the “TSAT, End of Treatment (Week 12)” value (TSAT; [3]) was 32%. The “ending TSAT level at Visit 11 (Week 12)” value (TSAT; sample size assumption) was “approximately 25%”, the “Product Of Calcium And Phosphorus, Mean” value ([2]; Baseline, Table 12) was 65.4075 and the “Product Of Calcium And Phosphorus, Median” value ([2]; Baseline, Table 12) was 62.7000. The “Product Of Calcium And Phosphorus, Week 12 Change from Baseline, Mean” value ([2]; Table 12) was −16.5635, the “Product Of Calcium And Phosphorus, Week 12 Change from Baseline, Median” value ([2]; Table 12) was −16.7400 and the “Product Of Calcium And Phosphorus, LS Mean” value ([2]; Week 12, ANCOVA, Table 12) was 48.97. The “Product Of Calcium And Phosphorus, Mean” value ([2]; Week 12, Table 12) was 48.8440, the “Product Of Calcium And Phosphorus, Median” value ([2]; Week 12, Table 12) was 47.5000 and the “Product Of Calcium And Phosphorus, Treatment Differences, LS Mean (KRX-0502) − LS Mean (Control)” value ([2]; Week 12, control = sevelamer carbonate as a single agent) was 1.45.
